Experimental data from PubChem BioAssay (NCI).
Where “and” joins values, the source holds several entries; their conditions need not be identical. Equal entries are not always repeated.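 A five-concentration, 48-hour dose response in 96-well plates underlies each endpoint, interpolated linearly between surrounding concentrations. The concentration for 50% growth inhibition is given as GI50. Definition used: TGI = concentration required for complete inhibition of growth.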

Assays:
Assay in all cases: growth of human tumour cells (NCI), 48 h
[1] = system: CAKI-1 renal
[2] = system: HL-60(TB) leukemia
[3] = system: IGROV1 ovarian
[4] = system: M14 melanoma
[5] = system: NCI-H460 lung
[6] = system: OVCAR-4 ovarian
[7] = system: SF-268 CNS
[8] = system: SF-295 CNS
[9] = system: SF-539 CNS
[10] = system: UACC-62 melanoma

Structure (SMILES)	GI50 [1] [µM]	TGI [1]	GI50 [2]	TGI [2]	GI50 [3]	TGI [3]	GI50 [4]	TGI [4]	GI50 [5]	TGI [5]	GI50 [6]	TGI [6]	GI50 [7]	TGI [7]	GI50 [8] [µM]	TGI [8]	GI50 [9] [µM]	TGI [9]	GI50 [10] [µM]	TGI [10]
CNCCCn1cc(C2=C(c3cn(C)c4ccccc34)C(=O)NC2=O)c2ccccc21	4.13	13.2 µM	5.55 µM	13.5 µM	5.41 µM	11.4 µM	4.17 µM	7.98 µM	4.53 µM	9.19 µM	3.06 µM	14.1 µM	5.24 µM	12 µM	4.73	10.3 µM	3.59	7.06 µM	3.96	7.67 µM
Clc1ccc2c(NCCCNc3nccc(Nc4ccc(Br)cc4)n3)ccnc2c1	1.53	3 µM	2.13 µM	4.94 µM	–	–	1.71 µM	3.5 µM	1.76 µM	3.44 µM	1.39 µM	2.75 µM	1.73 µM	3.32 µM	1.56	2.97 µM	1.81	3.37 µM	1.88	3.56 µM
O=C(Nc1ccc(OS(=O)(=O)c2ccccc2)cc1)C12CC3CC(CC(C3)C1)C2	7.08	> 100 µM	2.68 µM	> 100 µM	> 100 µM	> 100 µM	7.2 µM	> 100 µM	6.1 µM	> 100 µM	8.38 µM	> 100 µM	> 100 µM	> 100 µM	8.27	> 100 µM	0.965	> 100 µM	6.47	> 100 µM
C[As](C)SC1OC(CO)C(O)C1O (configuration not stated)	0.0487	0.402 µM	0.454 µM	–	1.32 µM	6.56 µM	0.232 µM	0.767 µM	1.46 µM	11.7 µM	1.69 µM	16.3 µM	0.998 µM	5.73 µM	2.28	7.16 µM	0.222	0.749 µM	0.385	1.54 µM
CCCCc1c(OC)cc(O)c2c1C(=O)c1[nH]c(C(=O)O)c(O)c(=O)c1C2=O	–	> 100 µM	–	> 100 µM	–	64.2 µM	–	34.3 µM	–	> 100 µM	–	> 100 µM	–	> 100 µM	–	> 100 µM	–	2.54 µM	–	6.96 µM
O=c1n(CC2CO2)c(=O)n(CC2CO2)c(=O)n1CC1CO1 (configuration not stated)	0.81	52.1 µM and 64.9 µM	5.21 µM and 2.39 µM	28.1 µM and > 100 µM	24.9 µM and 7.31 µM	96 µM and > 100 µM	13.2 µM and 6.77 µM	57.3 µM and > 100 µM	6.61 µM and 0.743 µM	32 µM and 29.6 µM and 12.2 µM	25.9 µM and 23 µM	112 µM and > 100 µM	11.7 µM and 3.66 µM	241 µM and > 100 µM	4.18	34.1 µM and 126 µM and > 100 µM	2.92	41.6 µM and 24.7 µM	5.58	41.9 µM and 75.5 µM
CCC[CH2][Sn]([CH2]CCC)([CH2]CCC)[O]C(=O)CC	0.0611	0.214 µM	0.163 µM	0.538 µM	0.167 µM	0.397 µM	0.167 µM	0.343 µM	0.135 µM	0.281 µM	0.125 µM	0.26 µM	0.146 µM	0.345 µM	0.238	0.746 µM	0.185	0.38 µM	0.178	0.405 µM
CCN(CC)CCOc1ccc(/C=C(\C#N)c2ccc(OCCN(CC)CC)cc2)cc1	–	> 60.1 µM	–	38.2 µM	–	> 52.4 µM	–	19.9 µM	–	36.6 µM	–	> 75.4 µM	–	53.9 µM	–	28 µM	–	20.6 µM	–	31.9 µM
O=C(OCc1ccc2cccc(O)c2n1)N1CCN(C(=O)c2cc3cc(F)ccc3[nH]2)CC1	0.354	1.66 µM	1.31 µM	3.47 µM	0.403 µM	1.64 µM	1.13 µM	2.5 µM	1.34 µM	3.64 µM	1.35 µM	2.74 µM	1.45 µM	3.04 µM	5.69	18.6 µM	1.15	2.36 µM	1.17	2.43 µM
Cc1nnc(S(=O)(=O)c2ccc(N=Nc3c(N)nc(N)nc3N)cc2)s1	–	> 100 µM	–	97.8 µM	–	> 100 µM	–	> 100 µM	–	> 100 µM	–	> 100 µM	–	> 100 µM	–	> 100 µM	–	> 100 µM	–	> 100 µM
CNC(=S)NC1CCCCC1NC(=S)NC (configuration not stated)	–	> 100 µM	–	> 100 µM	–	> 100 µM	–	> 100 µM	–	> 100 µM	–	> 100 µM	–	> 100 µM	–	> 100 µM	–	> 100 µM	–	> 100 µM
COc1ccc(C(=O)c2cc(OC)c(C)c(OC)c2)cc1OC(=O)CCl	0.591	77.7 µM	0.066 µM	0.193 µM	1.19 µM	> 100 µM	0.0693 µM	12.2 µM	0.37 µM	12.7 µM	1.22 µM	> 100 µM	1.33 µM	> 100 µM	0.764	30.7 µM	0.172	0.58 µM	1.61	22.4 µM
COc1ccc(OC)c(NC(=O)C(=O)NNC(=O)c2sc(NNC(C)=O)nc2C)c1	–	> 100 µM	–	90.3 µM	–	> 100 µM	–	> 100 µM	–	> 100 µM	–	71.2 µM	–	75.9 µM	–	> 100 µM	–	82.3 µM	–	81.5 µM
COc1ccc2c(c1)C(C)Cc1c(Cl)ncnc1N2C (configuration not stated)	1.53	> 100 µM	2 µM	7.06 µM	1.96 µM	> 69.6 µM	0.345 µM	7.99 µM	0.493 µM	> 100 µM	0.395 µM	> 100 µM	0.359 µM	22.9 µM	0.375	> 48.1 µM	0.471	18.8 µM	0.445	19 µM
